# From patent US20240327791A1, “METHODS OF T CELL PRODUCTION” (Adaptimmune Limited, priority 2021, published 2024)
# “Also recorded” adds a separate entry of the source.
# Columns and labels:
# Type in all cases: cell-based
# iPro T cells [1] = assay: T cell maturation in stage 5 medium after stage 4 pre-treatment, flow cytometry; details: pre-treated with UM729 21 days in stage 4 medium, then 14 days stage 5 medium without UM729
# Description: On day 21, 35 and 42 of culture iPro T Cells were seeded onto fresh SCT matrix (2.5 μl/cm^2) at a density of 250,000 cells per cm^2. Cells were cultured in T-Cell maturation media either with or without UM729 (0.25-5 μM), with demi-media changes every 3 days for 2 weeks. After 2 weeks of maturation the cells were counted using the NC-250 and phenotyped by flow cytometry using the panel in Table 1. On the day of the assay, the cells were counted, washed twice in FACS Buffer and phenotyped by flow cytometry for T-cell markers.
# [2] = system: haematopoietic progenitor cells (iPSC derived CD34+ cells); assay: Viability and proliferation of HPCs / iPro T cells cultured with pyrimidoindole compound (cell counts, NC-250); details: for viability of cells: UM729 0.25 μM to 1.0 μM (up to 1 μM)
# Description: iPSC cells (HCP1324_c1A12) were differentiated to day 16, using our in-house Proprietary media. HPC (CD34+ cells) were isolated using MACS and a cryopreserved bank of these cells was created for further differentiation into iT-Cells. HPC were then thawed and seeded at 5000 cells per cm^2 in 1 ml of lymphoid progenitor (stage 4; LP) media on the standard SCT's coating (2.5 μL/cm^2). UM729 was added to the culture media in a range of concentrations from 0.25 μM-5 μM. On day 3, 1 mL of LP media with the required concentration of UM729 was added and further demi-media changes were carried out every 3 days, with the required media concentration. Every 14 days cells were removed from culture and counted using NC-250. The cells were then replated on to fresh SCT matrix and UM729 was added to the media at the relevant concentration. Cells were removed from the cultures after 21, 35 and 42 days and phenotyped using the panel in Table 1. At these timepoints cells were either continued on in lymphoid progenitor media with the relevant UM729 concentrations or transferred into T cell maturation conditions. On day 21, 35 and 42 of culture iPro T Cells were seeded onto fresh SCT matrix (2.5 μl/cm^2) at a density of 250,000 cells per cm^2. Cells were cultured in T-Cell maturation media either with or without UM729 (0.25-5 μM), with demi-media changes every 3 days for 2 weeks. After 2 weeks of maturation the cells were counted using the NC-250 and phenotyped by flow cytometry using the panel in Table 1.
# iPro T cells [3] = assay: Expansion of iPro T cells in stage 4 medium; details: UM729 0.25 μM to 1.0 μM in stage 4 medium, up to 42 days
# Description: (§1) HPC were then thawed and seeded at 5000 cells per cm^2 in 1 ml of lymphoid progenitor (stage 4; LP) media on the standard SCT's coating (2.5 μL/cm^2). UM729 was added to the culture media in a range of concentrations from 0.25 μM-5 μM. On day 3, 1 mL of LP media with the required concentration of UM729 was added and further demi-media changes were carried out every 3 days, with the required media concentration. Every 14 days cells were removed from culture and counted using NC-250. The cells were then replated on to fresh SCT matrix and UM729 was added to the media at the relevant concentration. Cells were removed from the cultures after 21, 35 and 42 days and phenotyped using the panel in Table 1. At these timepoints cells were either continued on in lymphoid progenitor media with the relevant UM729 concentrations or transferred into T cell maturation conditions.
# iPro T cells [4] = assay: Recovery of iPro T cells from freeze/thaw and culture in stage 5 medium; details: pre-treated with UM729 at 1 μM in stage 4 medium; 7 days in stage 5 medium
# [5] = system: haematopoietic progenitor cells (iPSC derived CD34+ cells); assay: Flow cytometry phenotyping of HPCs differentiated in lymphoid progenitor (stage 4) medium with pyrimidoindole compound
# Description: as §1, with “conditions. On the day of the assay, the cells were counted, washed twice in FACS Buffer and phenotyped by flow cytometry for T-cell markers.” for “conditions.”
# [6] = UM729 5.0 μM or higher, 21 days
# [7] = UM729 0.25 μM to 1.0 μM in stage 4 media, 21 days
# [8] = UM729 0.25 μM to 1.0 μM, 21 days
# [9] = UM729 0.25 μM to 1.0 μM, 35 days (UM729 also in stage 5 cultures)
compound,measurement,setting,value
"COC(=O)c1ccc2c(c1)[nH]c1ncnc(NCCCN3CCCCC3)c12 [UM729, methyl 4-(3-piperidin-1-ylpropylamino)-9H-pyrimido[4,5-b]indole-7-carboxylate]",differentiation to CD4+CD8+ double positive T cells after removal of UM729 (FIG. 10),iPro T cells [1],found to be removed; also recorded: will become CD4+CD8+ double positive
same,viability of cells,[2]; 21 days,maintain viability; also recorded: not to affect the viability
same,viability of cells,[2]; 35 days,not to affect the viability; also recorded: maintain viability
same,proliferation of total cells,[2]; [6],reduced or ceases; also recorded: ceased
same,viability of total cells,[2]; [6],reduced or ceases; also recorded: comparably low
same,cytotoxic effects,[2]; UM729 at concentrations of 5 μM and above,cytotoxic effects were observed
same,expansion of iPro T cells (FIG. 9),iPro T cells [3],supported over 42 days; also recorded: greatly enhances the expansion of iProT cells
same,cell proliferation after culture in stage 5 medium (FIG. 12B),iPro T cells [4],increased cell proliferation
same,viability after culture in stage 5 medium (FIG. 12A),iPro T cells [4],higher viability
same,differentiation into / yield of CD7+CD5+ iPro T cells (FIG. 4A),[5]; [7],promotes differentiation into iProT cells; also recorded: increase the yield
same,percentage of CD7+CD5+ iPro T cells (FIG. 4B),[5]; [7],enriches the percentage of iProT cells; also recorded: enrich the percentage
same,fraction of CD8+CD4+ double positive cells (further differentiation to DP T cells),"[5]; UM729 0.25 μM to 1.0 μM in stage 4 medium, 21 days",decreases the fraction of CD8+CD4+ double positive cells; also recorded: inhibited further differentiation
same,lymphoid fraction of the cells,[5]; [8],increases the lymphoid fraction
same,myeloid fraction of the cells (myeloid cellular contamination),[5]; [8],reduces the myeloid fraction; also recorded: reduce this cellular contamination in a dose dependent manner
same,differentiation into / percentage of CD7+CD5+ iPro T cells (FIG. 7),[5]; [9],increasing; also recorded: promotes differentiation into iProT cells
same,fraction / development of CD8+CD4+ double positive cells (FIG. 8),[5]; [9],inhibited in a dose dependent manner; also recorded: decreases the fraction of CD8+CD4+ double positive cells
